According to patent EP1121937A1, “VACCINE PR[…]” (THE KITASATO INSTITUTE, priority 1998, dated 2000):
Entries after “also recorded” stand apart in the source; their conditions may differ.

Legend:
[1] = tested on: influenza HA vaccine (A/PR/8/34 strain); set-up: species or system BALB/c mice; conditions: mouse, in vivo
[2] = tested on: pertussis-diphtheria-tetanus combined vaccine; set-up: species or system BALB/c mice; conditions: mouse, in vivo
[3] = tested on: pertussis-diphtheria-tetanus combined vaccine; set-up: species or system BALB/c mice; conditions: mouse, in vivo; remark: listed apart in the source
sheep erythrocytes = assay: Hemolytic test for active saponins (Example 6); format: cell-based; conditions: 30 minutes at room temperature, solutions 3.125 to 200 µg/ml in PBS, E and F judged at a final concentration of 200 µg/ml
Procedure: It has been known that saponins generally have the hemolytic activity. Thus, the inventive active saponins were tested for the hemolytic activity as follows. The sheep erythrocytes were washed 3 times with phosphate buffered saline (PBS), and then diluted 2.5 times with the same buffer for the subsequent experiment. Aliquots (100 µl ) of solutions of onjisaponins A, E, F, and G (200, 100, 50, 25, 6.25, 3.125 µg/ml-PBS solution) were added to V-shaped wells of a 96-well micro-plate, and 25 µl of sheep erythrocyte suspension was added to each well. The plate was allowed to stand still at room temperature for 30 minutes. Then, the samples were centrifuged at 1000 rpm for 5 minutes. An aliquot (50 µl) of the resulting supernatant was transferred to a flat-bottomed well of a plate and the absorbance thereof was measured at 490 nm in a micro-plate reader (Model 450, BioRad Co.). The hemolytic activity of test compound was evaluated based on the increase in absorbance at 490 nm, which results from the release of hemoglobin from sheep erythrocytes.

[4] = background art; cited from earlier work
cellular immunity = conditions: background art; cited from earlier work
[5] = tested on: influenza HA vaccine (A/Beijing/262/95 strain); set-up: species or system BALB/c mice; conditions: mouse, in vivo
[6] = tested on: influenza HA vaccine (A/Beijing/262/95 strain); format: in vivo, BALB/c mice

Substance | anti-HA-IgA and IgG antibody titers in the nasal irrigation liquid compared with the group given vaccine in combination with CTB [1] | anti-HA-IgA antibody titer in the nasal irrigation liquid [1] | anti-HA-IgG antibody titer in the nasal irrigation liquid [1] | titer of anti-DT-IgG antibody in the serum [2] | titer of anti-PT-IgG antibody in the serum [2] | titer of anti-TT-IgG antibody in the serum [2] | titers of anti-PT-IgG, anti-DT-IgG and anti-TT-IgG antibodies in the serum compared with the group given vaccine and CTB [2] | titer of anti-DT-IgA antibody in the nasal irrigation liquid [3] | titer of anti-PT-IgA antibody in the nasal irrigation liquid [3] | titer of anti-TT-IgA antibody in the nasal irrigation liquid [3] | titers of anti-PT-IgA, anti-DT-IgA and anti-TT-IgA antibodies in the nasal irrigation liquid compared with the group given vaccine and CTB [3] | hemolytic activity (release of hemoglobin, absorbance at 490 nm) (sheep erythrocytes) | solubility [4] | induction of cellular immunity (cellular immunity) | HI antibody titer in the serum compared with HA vaccine alone [5] | adjuvant activity (serum HI antibody titer) compared with the same amount of CTB [5] | adjuvant activity of enhancing the titer of anti-HA-IgA antibody compared with the same amount of CTB ([6]; mouse, in vivo) | anti-HA-IgA antibody titer in the nasal irrigation liquid ([6]; secondary response, […]) | anti-HA-IgG antibody titer in the nasal irrigation liquid ([6]; secondary response, […])
onjisaponin A | comparable | increased to the highest level | increased to the highest level | increased to highest levels | increased to highest levels | increased to highest levels | comparable | increased to highest levels | increased to highest levels | increased to highest levels | comparable | not acceptable; also recorded: hemolysis clearly occurred | – | – | – | – | – | – | –
QS-21 | – | – | – | – | – | – | – | – | – | – | – | – | too low | strongly induces the cellular immunity | – | – | – | – | –
onjisaponin F | – | increased the production | increased the production | also elevated | also elevated | also elevated | – | increased to highest levels | increased to highest levels | increased to highest levels | comparable | substantially no hemolytic activity; also recorded: low hemolytic activity; also recorded: hardly recognized | – | – | significantly increased | slightly weaker | lower | significantly increased | significantly increased
onjisaponin G | – | increased only the production of anti-HA-IgA to a statistically significant level | increased only the production of anti-HA-IgA | increased only anti-TT-IgG antibody titer | increased only anti-TT-IgG antibody titer | increased only anti-TT-IgG antibody titer to a statistically significant level | – | also elevated | – | also elevated | – | low hemolytic activity; also recorded: moderate degree of hemolysis | – | – | – | – | – | – | –
onjisaponin E | – | increased only the production of anti-HA-IgA to a statistically significant level | increased only the production of anti-HA-IgA | – | – | – | – | – | – | – | – | substantially no hemolytic activity; also recorded: low hemolytic activity; also recorded: hardly recognized | – | – | – | – | – | – | –
